# Values quoted from earlier work as cited in US20220401449A1, “COMPOSITIONS PROVIDING SLOW RELEASE OF CAFFEINE AND BEVERAGES COMPRISING THE SAME” (priority 2021, published 2022).
# Read-outs that look alike come from different tables or passages of the source.
compound,measurement,setting,value
Cn1c(=O)c2c(ncn2C)n(C)c1=O [caffeine],caffeine's saturation concentration in water,80° C.,about 200 mg/ml
same,caffeine's saturation concentration in water,room temperature,about 16 mg/ml
